Assays:
[1] = molecular target: T1, human HDAC1 (Homo sapiens, UniProt Q13547); assay: HDAC-inhibiting activity, coumarin-labeled acetylated histone peptide assay; type: biochemical; settings: human HDAC1 from transfected 293T cells; 37° C., 30 minutes
T1 construct: made in house; host or cells: 293T cells (transient transfection, anti-FLAG immunoprecipitation, FLAG peptide elution)
Experimental: In carrying out HDAC-inhibiting activity measurements, HDAC solutions were prepared in the following manner. In each 100-mm dish, there were sowed 1×10^7 293T cells and, after 24 hours, they were transfected with a vector (5 μg) expressing human HDAC1 or HDAC4 or murine HDAC6 using the LipofectAmine 2000 reagent (Invitrogen). The human HDAC1 expression vector used was pcDNA3-HD1 (Yang, W. M., Yao, Y. L., Sun, J. M., Davie, J. R. & Seto, E. (1997) J. Biol. Chem. 272, 28001-28007), the human HDAC4 expression vector used was pcDNA3-HD4 (Fischle, W., Emiliani, S., Hendzel, M. J., Nagase, T., Nomura, N., Voelter, W. & Verdin, E. (1999) J. Biol. Chem. 274, 11713-11720), and the murine HDAC6 expression vector used was pcDNA3-mHDA2/HDAC6 (Verdel, A. & Khochbin, S. (1999) J. Biol. Chem. 274, 2440-2445).
After 24 hours of incubation, cells were recovered, washed with PBS, suspended in lysis buffer (50 mM Tris-HCl (pH 7.5), 120 mM NaCl, 5 mM EDTA, 0.5% Nonidet P-40), and sonicated. The supernatant was collected by centrifugation and then deprived of nonspecific proteins using Protein A/G plus agarose beads (Santa Cruz Biotechnologies, Inc.). Thereafter, anti-FLAG M2 antibody (Sigma-Aldrich Inc.) was added, and the reaction was allowed to proceed at 4° C. for 2 hours.
To this were added agarose beads, the reaction was allowed to proceed at 4° C. for 3 hours, and the agarose beads were washed three times with lysis buffer and then once with HD buffer (20 mM Tris-HCl (pH 8.0), 150 mM NaCl, 10% glycerol). The protein bound to the agarose beads was recovered by 1 hour of incubation with FLAG peptide (40 μg) (Sigma-Aldrich Inc.) in HD buffer (200 μl) at 4° C., and the liquid recovered was used, as a reactant solution, in the HDAC-inhibiting activity measurement described below.
HDAC-inhibiting activity evaluation in each in vitro system was made as follows. Each test compound was dissolved in DMSO, a stock solution with a concentration of 10 mM was thus prepared and this was used as an inhibitor stock solution. The assay was carried out by incubating the HDAC solution and a coumarin-labeled acetylated histone peptide solution in the presence of the test compound at 37° C. for 30 minutes (reaction volume 20 μl). To the reaction mixture was added 30 μl of trypsin, and the aminomethylcoumarin released by the enzymatic reaction was assayed using a fluorescent plate reader. In a negative control assay, no inhibitor was added to the reaction system and the same procedure was carried out.

[2] = tested on: human wild type p21 promoter; assay: p21 promoter assay (luciferase) in MFLL-9 cells; type: cell-based; settings: 20 hours, concentration giving 1000% luminescence relative to negative control (100%)
Experimental: As an HDAC-inhibiting activity in an […] system, the following measurement was carried out using the p21 promoter inducing activity as an index. MFLL-9 cells used in the experiment are cells stably retaining a fusion gene (Dr. B. Vogelstaein) from the human wild type p21 promoter and luciferase gene. They were cultured using phenol red-free DMEM supplemented with 10% FBS in a steam-saturated incubator at 37° C. in the presence of 5% carbon dioxide. These MFLL-9 cells were sowed onto a 96-well microplate at a cell density of 2×10^4 cells/well and, after 24 hours of cultivation in 99 μl, per well, of the medium mentioned above, each test compound solution was added, followed by 20 hours of incubation. […] In a negative control, the same procedure was carried out without adding any inhibitor to the reaction system.
Using Luciferase Assay Reagent (Promega), the intensity of the luminescence due to the product of the enzymatic reaction involving luciferase expressed within cells was measured.

[3] = tested on: brain tumor cell line SF-539; assay: Human cancer cell line panel, proliferation (sulforhodamine B); type: cell-based; settings: SF-539, 2 days of cultivation; read-out: 50% inhibitory concentration, proliferation
Source text: The characteristics of the human cancer cell proliferation-inhibiting activity of the compounds of the present invention were examined by the “method of evaluating the mechanisms of action of compounds using a panel of human cancer cell lines” as proposed by Yamori et al. (cf. Gan to Kagaku Ryoho (Cancer and Chemotherapy) 29 Suppl. II (2002) and Cancer Chemother. Pharmacol. 52 Suppl. I, S74-79 (2003)).
This system includes […] (7 lung cancer, 6 stomach cancer, 5 colon cancer, 5 ovarian cancer, 6 brain tumor, […], 2 kidney cancer and 2 prostate cancer cell lines as well as one melanoma line) and the method comprises measuring the in vitro drug susceptibilities of those cancer cell lines and expressing the differences in drug susceptibility among the respective cancer cell lines as a fingerprint. […] By utilizing this property, it is possible to estimate the mechanisms of action of a compound. The above method is also characterized in that an anticancer substance showing new and unique mechanisms of action different from those of the existing anticancer agents can be selected.
Cancer cells of each cell line are sowed onto a 96-well plate, a sample solution is added on the next day and, after 2 days of cultivation, the cell proliferation is measured by colorimetry using sulforhodamine B. The deviations in effective concentration for the respective cancer cell lines from the mean effective drug concentration for the 39 cancer cell lines subjected to measurement are calculated and shown in the form a fingerprint.

T1 sequence (Q13547 whole entry): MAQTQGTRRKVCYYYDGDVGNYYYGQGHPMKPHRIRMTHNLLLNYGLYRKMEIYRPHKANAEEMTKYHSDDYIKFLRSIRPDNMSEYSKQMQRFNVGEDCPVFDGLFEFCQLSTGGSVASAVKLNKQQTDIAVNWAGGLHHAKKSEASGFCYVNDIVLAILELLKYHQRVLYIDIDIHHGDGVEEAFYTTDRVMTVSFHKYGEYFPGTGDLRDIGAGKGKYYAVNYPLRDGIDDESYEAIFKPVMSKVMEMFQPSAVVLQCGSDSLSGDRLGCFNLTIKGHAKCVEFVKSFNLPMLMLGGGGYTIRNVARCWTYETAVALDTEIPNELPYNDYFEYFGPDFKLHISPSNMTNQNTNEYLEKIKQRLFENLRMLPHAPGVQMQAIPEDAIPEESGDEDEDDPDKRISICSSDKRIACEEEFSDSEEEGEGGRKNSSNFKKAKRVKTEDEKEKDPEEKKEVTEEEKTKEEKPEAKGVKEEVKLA

IC50 [1] [nM]	IC50 [3] [nM]	Compound	p21 promoter activity EC1000 [2] [µM]
50	≤ 100	CC1(C)NC(=O)[C@H](CCCCCSCc2ccncc2)NC(=O)[C@H]2CCCN2C(=O)[C@H](Cc2ccccc2)NC1=O [Ky-26, cyclo(-L-Am7(4-pyridylmethyl)-Aib-L-Phe-D-Pro-)]	0.010
–	≤ 100	CC(=O)CSCCCCC[C@@H]1NC(=O)[C@H]2CCCN2C(=O)[C@H](Cc2ccccc2)NC(=O)C(C)(C)NC1=O [Ky-72, cyclo(-L-Am7(acetonyl)-Aib-L-Phe-D-Pro-)]	0.031
